# Laboratory results from patent publication US20070202058A1, “Compositions for treating gastric reflux” (priority 2006, published 2007).
# Assays:
# [1] = system: aspirin induced gastric lesions; test: Prevention of aspirin induced gastric lesions (U.S. Pat. No. 3,988,466, Table 1); format: in vivo; conditions: aspirin induced gastric lesions (Table 1)
# Method: (§1) U.S. Pat. No. 3,988,466 reports that amino acids, particularly, L-glutamine are effective for the prevention or treatment of certain experimental ulcers, induced artificially by stress or pylorus ligation, or chemically by histamine, reserpine, cortisone, or inflammatory agents when given simultaneously. Further, such prevention only occurred when the concomitant dosage of the amino acid, L-glutamine, present was 2-5 g for a dose of aspirin of 0.3-1.0 g or for 25-50 mg of indomethacin, the required dose of L-glutamine was 2 g. […] Glutamine was ineffective in prevention of indomethacin induced gastric lesions at a dose of 15.6 mg/kg (Table 2) which is equivalent to 1.1 g for an human adult (70 kg weight). No use or indication for relief of gastric distress before or after lesion formation was observed, nor could it have been in the animal model used. No use or indication for relief of gastric lesions after lesion formation was disclosed. […] Of the 24 amino acids tried at the pharmaceutically unacceptable level of 750 mg/kg (calculated to be 52.5 g of the amino acid for a 70 kg human dose), all but DL-tryptophan, L-aspartic acid, L-tyrosine, L-cysteine and L-cystine gave more than 50% inhibition of ulcers. The pH of the amino acids was not a factor in ulcer prevention, showing that “the effect of amino acids is different from that of antacids” (Col 6, lines 27-31)
# [2] = system: indomethacin induced gastric lesions; test: Prevention of indomethacin induced gastric lesions (U.S. Pat. No. 3,988,466, Table 2); format: in vivo; conditions: indomethacin induced gastric lesions (Table 2)
# Method: as §1
# [3] = system: aspirin induced gastric lesions; conditions: cited from earlier work
# [4] = system: indomethacin induced gastric lesions; conditions: cited from earlier work
# small bowel ulcers = conditions: rats, cited from earlier work; for ulcer healing: glutamine given in a guar gum
# [5] = system: gastric reflux (heartburn); test: Example 9: patient with stress-related gastric reflux takes L-lysine confection; format: in vivo, human; conditions: for effect of the patient's earlier treatments on gastric reflux / heartburn: same patient, Nexium 40 mg twice a day
compound,measurement,setting,value
"NC(=O)CC[C@H](N)C(=O)O [Glutamine, L-glutamine]",minimum effective dose calculated for a 70 kg human,[1],8.75 g
same,minimum effective dose calculated for a 70 kg human,[2],2.2 g
same,minimum effective dose,[3]; aspirin induced gastric lesions (Table 1),125 mg/kg
same,prevention of aspirin induced gastric lesions,[3]; dose of 62.5 mg/kg,completely ineffective
same,prevention of indomethacin induced gastric lesions,[4]; dose of 15.6 mg/kg,ineffective
same,minimum effective dose,[4]; indomethacin induced gastric lesions (Table 2),31.3 mg/kg
same,ulcer healing,small bowel ulcers,no effect
N=C(N)NCCC[C@H](N)C(=O)O [L-arginine],decrease in ulcer number,small bowel ulcers; L-arginine together with yeast RNA (antagonistic),34%
same,ulcer healing,small bowel ulcers,somewhat effective
NCCCC[C@H](N)C(=O)O [L-lysine],time to complete cessation of all symptoms,[5]; 1 gram dose as a carrageenan confection,one
same,relief of heartburn,"[5]; 1 gram dose as a carrageenan confection, patient with gastric reflux due to stress",immediate relief
"COc1ccc2nc([S@@+]([O-])Cc3ncc(C)c(OC)c3C)[nH]c2c1 [Nexium, esomeprazole, reference compound]",effect of the patient's earlier treatments on gastric reflux / heartburn,[5],continued heartburn
"O=C([O-])[O-].[Ca+2] [calcium carbonate antacids, calcium carbonate, reference compound]",effect of the patient's earlier treatments on gastric reflux / heartburn,[5],ineffective
